US20060166900A1, “Salt of morphine-6-glucuronide” (CeNeS Limited, priority 2002, published 2006)

Legend:
Type in all cases: physicochemical
[1] = Colour of solution by visible spectrophotometry on storage (Example 3); conditions: 5% w/v solution in water
In short: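 5% w/v aqueous solution, absorbance at 420 nm in a 1 cm silica cell. Samples were stored in argon-flushed brown opaque HDPE bottles at 25° C./60% RH, 40° C./75% RH and 60° C.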

[2] = Water content by Karl Fisher analysis on storage (Example 3)
In short: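 900 mg aliquots were held in argon-flushed brown opaque HDPE bottles at 25 °C/60% RH, 40 °C/75% RH and 60 °C. At each time point, water content (% w/w) was determined in duplicate on about 100 mg of equilibrated material by Karl Fischer titration.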

[3] = Stability indicating HPLC assay and related substances on storage (Example 3)
[4] = Storage stability of M6G base (general statement)
[5] = Visual appearance on storage (Example 3)
In short: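 Aliquots (900 mg) kept at 2-8 °C beforehand were stored in argon-flushed brown opaque HDPE bottles at 25 °C/60% RH, 40 °C/75% RH and 60 °C. Visual appearance was assessed at set time points.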

[6] = Stability of M6G salts at room temperature over 6 years, HPLC

CN1CC[C@]23c4c5ccc(O)c4O[C@H]2[C@@H](O[C@@H]2O[C@H](C(=O)O)[C@@H](O)[C@H](O)[C@H]2O)C=C[C@H]3[C@H]1C5 [Morphine-6-glucuronide base, morphine-6-β-D-glucuronide]
Colour ([1]; 1 month, 25° C./60% RH): 0.040 Abs@420 nm
Colour ([1]; 1 month, 40° C./75% RH): 0.182 Abs@420 nm
Colour ([1]; 1 month, 60° C.): 0.541 Abs@420 nm
Colour ([1]; 3 months, 25° C./60% RH): 0.132 Abs@420 nm
Colour ([1]; 3 months, 40° C./75% RH): 0.680 Abs@420 nm
Colour ([1]; Initial): 0.017 Abs@420 nm
Moisture ([2]; 1 month, 25° C./60% RH): 9.00 % w/w
Moisture ([2]; 1 month, 40° C./75% RH): 9.68 % w/w
Moisture ([2]; 1 month, 60° C.): 8.21 % w/w
Moisture ([2]; 3 months, 25° C./60% RH): 9.53 % w/w
Moisture ([2]; 3 months, 40° C./75% RH): 9.85 % w/w
Moisture ([2]; Initial): 9.80 % w/w
moisture content across storage conditions ([2]; regardless of storage condition): reasonably consistent
Known Related Substances HN33177 ([3]; 1 month, 25° C./60% RH): 0.88%
Known Related Substances HN75083 ([3]; 1 month, 25° C./60% RH): 0.05%
M6G Assay, Anhydrous basis ([3]; 1 month, 25° C./60% RH): 99.61 % w/w
M6G Assay, As is basis ([3]; 1 month, 25° C./60% RH): 90.77 % w/w
M6G Assay, Corrected for the salt form ([3]; 1 month, 25° C./60% RH): 99.61 % w/w
Total Known ([3]; 1 month, 25° C./60% RH): 0.93%
Total Related Substances ([3]; 1 month, 25° C./60% RH): 1.00%
Total Unknown ([3]; 1 month, 25° C./60% RH): 0.07%
Known Related Substances HN33177 ([3]; 1 month, 40° C./75% RH): 0.85%
Known Related Substances HN67003 ([3]; 1 month, 40° C./75% RH): 0.05%
Known Related Substances HN75083 ([3]; 1 month, 40° C./75% RH): 0.03%
M6G Assay, Anhydrous basis ([3]; 1 month, 40° C./75% RH): 99.45 % w/w
M6G Assay, As is basis ([3]; 1 month, 40° C./75% RH): 89.94 % w/w
M6G Assay, Corrected for the salt form ([3]; 1 month, 40° C./75% RH): 99.45 % w/w
Total Known ([3]; 1 month, 40° C./75% RH): 0.93%
Total Related Substances ([3]; 1 month, 40° C./75% RH): 1.27%
Total Unknown ([3]; 1 month, 40° C./75% RH): 0.34%
Known Related Substances HN33177 ([3]; 1 month, 60° C.): 0.83%
Known Related Substances HN67003 ([3]; 1 month, 60° C.): 0.19%
Known Related Substances HN75083 ([3]; 1 month, 60° C.): 0.02%
M6G Assay, Anhydrous basis ([3]; 1 month, 60° C.): 96.18 % w/w
M6G Assay, As is basis ([3]; 1 month, 60° C.): 89.31 % w/w
M6G Assay, Corrected for the salt form ([3]; 1 month, 60° C.): 96.18 % w/w
Total Known ([3]; 1 month, 60° C.): 1.04%
Total Related Substances ([3]; 1 month, 60° C.): 2.31%
Total Unknown ([3]; 1 month, 60° C.): 1.27%
stability based on % w/w assay ([3]; 3 month assay data): most stable
Known Related Substances HN33177 ([3]; 3 months, 25° C./60% RH): 0.86%
Known Related Substances HN67003 ([3]; 3 months, 25° C./60% RH): 0.04%
M6G Assay, Anhydrous basis ([3]; 3 months, 25° C./60% RH): 100.27 % w/w
M6G Assay, As is basis ([3]; 3 months, 25° C./60% RH): 91.84 % w/w
M6G Assay, Corrected for the salt form ([3]; 3 months, 25° C./60% RH): 100.27 % w/w
Total Known ([3]; 3 months, 25° C./60% RH): 0.90%
Total Related Substances ([3]; 3 months, 25° C./60% RH): 1.42%
Total Unknown ([3]; 3 months, 25° C./60% RH): 0.52%
Known Related Substances HN33177 ([3]; 3 months, 40° C./75% RH): 0.95%
Known Related Substances HN67003 ([3]; 3 months, 40° C./75% RH): 0.23%
Known Related Substances HN75076 ([3]; 3 months, 40° C./75% RH): 0.01%
Known Related Substances Morphine ([3]; 3 months, 40° C./75% RH): 0.07%
M6G Assay, Anhydrous basis ([3]; 3 months, 40° C./75% RH): 97.15 % w/w
M6G Assay, As is basis ([3]; 3 months, 40° C./75% RH): 88.67 % w/w
M6G Assay, Corrected for the salt form ([3]; 3 months, 40° C./75% RH): 97.15 % w/w
Total Known ([3]; 3 months, 40° C./75% RH): 1.26%
Total Related Substances ([3]; 3 months, 40° C./75% RH): 4.34%
Total Unknown ([3]; 3 months, 40° C./75% RH): 3.08%
increase in the amount of degradation products as measured by HPLC ([3]; 3 months, 40° C./75% RH): approximately 3%
stability assessment ([3]; 25° C./60% RH, three months): relatively stable
stability assessment ([3]; 40° C./75% RH over 3 months (base also 60° C. over 1 month)): shows signs of degradation
Known Related Substances HN33177 ([3]; Initial): 0.87%
Known Related Substances HN67003 ([3]; Initial): 0.05%
Known Related Substances HN75083 ([3]; Initial): 0.06%
M6G Assay, Anhydrous basis ([3]; Initial): 99.79 % w/w
M6G Assay, As is basis ([3]; Initial): 91.07 % w/w
M6G Assay, Corrected for the salt form ([3]; Initial): 99.79 % w/w
Total Known ([3]; Initial): 0.98%
Total Related Substances ([3]; Initial): 0.98%
Total Unknown ([3]; Initial): 0.00%
stability on storage ([4]; stored at room temperature): does degrade
stability on storage ([4]; stored at −20° C.): stable
Appearance ([5]; 1 month, 25° C./60% RH): White crystalline powder
Appearance ([5]; 1 month, 40° C./75% RH): Pale yellow crystalline powder
Appearance ([5]; 1 month, 60° C.): Yellow crystalline powder
Appearance ([5]; 3 months, 25° C./60% RH): White crystalline powder
Appearance ([5]; 3 months, 25° C./60% RH, listed as base): white crystalline solids
Appearance ([5]; 3 months, 40° C./75% RH): Yellow crystalline powder
Appearance ([5]; Initial): White crystalline powder
HN-33177 ([6]; 0 years): 0.7%
Unknown related substances (sum area %) ([6]; 0 years): <0.1 area %
Assay M6G corr. ([6]; 0 years, content calculated as M6G derivative): 98.2%
Assay M6G corr. ([6]; 5 years at ambient temperature): 81.2%
HN-33177 ([6]; 5 years at ambient temperature): 0.8%
Morphine ([6]; 5 years at ambient temperature): 0.3%
Unknown related substances (sum area %) ([6]; 5 years at ambient temperature): 11.8 area %
